ChEMBL document CHEMBL4257578, “6'-Fluoro-3-deazaneplanocin: Synthesis and antiviral properties, including Ebola” (Bioorg Med Chem Lett, 2018)
Calls of active or inactive are those of the source. No cut-off for these calls is given here.

Tests used:
Tacaribe virus = test: Antiviral activity against Tacaribe virus infected in African green monkey Vero cells; format: functional, organism-based; settings: Mammarenavirus tacaribeense
West Nile virus = test: Antiviral activity against West Nile virus infected in African green monkey Vero 76 cells; format: functional, organism-based
Hepatitis B virus = test: Antiviral activity against Hepatitis B virus infected in human HepG2.2.15 cells; format: functional, organism-based
[1] = Selectivity index, ratio of CC50 for African green monkey Vero 76 cells to EC50 for measles virus; format: toxicity; settings: read-out: Ratio CC50/EC50
Measles morbillivirus = test: Antiviral activity against Measles virus infected in African green monkey Vero 76 cells; format: functional, organism-based
Poliovirus 1 = test: Antiviral activity against Human poliovirus 1 infected in African green monkey Vero 76 cells; format: functional, organism-based
[2] = Cytotoxicity against African green monkey Vero cells assessed as reduction in cell viability; format: cell-based; settings: chlorocebus sabaeus
Human adenovirus 5 = test: Antiviral activity against Human adenovirus 5 infected in human A549 cells; format: functional, organism-based
Norovirus = test: Antiviral activity against Norovirus infected in human HG23 cells; format: functional, organism-based
[3] = Selectivity index, ratio of CC50 for African green monkey Vero cells to EC50 for Ebolavirus; format: toxicity; settings: read-out: Ratio CC50/EC50
Yellow fever virus = test: Antiviral activity against Yellow fever virus infected in African green monkey Vero cells; format: functional, organism-based
[4] = Cytotoxicity against African green monkey Vero 76 cells assessed as reduction in cell viability; format: cell-based; settings: chlorocebus sabaeus
Ebolavirus [5] = test: Antiviral activity against Ebolavirus infected in African green monkey Vero cells; format: functional, cell-based; settings: Orthoebolavirus
Influenza A virus = test: Antiviral activity against Influenza A virus (H1N1) infected in MDCK cells; format: functional, organism-based
[6] = Cytotoxicity against MDCK cells assessed as reduction in cell viability; format: cell-based, Canis lupus familiaris; settings: dog
[7] = Selectivity index, ratio of CC50 for MDCK cells to EC50 for Influenza A virus (H1N1); format: toxicity; settings: dog, read-out: Ratio CC50/EC50
Punta Toro virus = test: Antiviral activity against Punta Toro virus infected in African green monkey Vero 76 cells; format: functional, organism-based
[8] = test system: Venezuelan equine encephalitis virus; test: Antiviral activity against Venezuelan equine encephalitis virus infected in African green monkey Vero 76 cells; format: functional, organism-based
Usutu virus = test: Antiviral activity against Usutu virus infected in African green monkey Vero 76 cells; format: functional, organism-based
dengue virus type 2 = test: Antiviral activity against Dengue virus 2 infected in African green monkey Vero 76 cells; format: functional, organism-based
Chikungunya virus = test: Antiviral activity against Chikungunya virus infected in African green monkey Vero 76 cells; format: functional, organism-based
Human betaherpesvirus 5 = test: Antiviral activity against Human cytomegalovirus infected in human HFF cells; format: functional, organism-based
Pichinde virus = test: Antiviral activity against Pichinde virus infected in African green monkey Vero; format: functional, organism-based
Rift Valley fever virus = test: Antiviral activity against Rift Valley fever virus infected in African green monkey Vero 76 cells; format: functional, organism-based
[9] = molecular target: AdoHcyase_NAD domain-containing protein (Oryctolagus cuniculus, UniProt G1SVH0); test: Inhibition of SAHase from rabbit erythrocytes using S-adenosyl-L-homocysteine as substrate preincubated for 5 mins followed by substrate addition and measured after 1 hr by Measure-iTTM thiol quantitation reagent based assay
Sequence of AdoHcyase_NAD domain-containing protein (G1SVH0 whole entry, the tested form may be a part): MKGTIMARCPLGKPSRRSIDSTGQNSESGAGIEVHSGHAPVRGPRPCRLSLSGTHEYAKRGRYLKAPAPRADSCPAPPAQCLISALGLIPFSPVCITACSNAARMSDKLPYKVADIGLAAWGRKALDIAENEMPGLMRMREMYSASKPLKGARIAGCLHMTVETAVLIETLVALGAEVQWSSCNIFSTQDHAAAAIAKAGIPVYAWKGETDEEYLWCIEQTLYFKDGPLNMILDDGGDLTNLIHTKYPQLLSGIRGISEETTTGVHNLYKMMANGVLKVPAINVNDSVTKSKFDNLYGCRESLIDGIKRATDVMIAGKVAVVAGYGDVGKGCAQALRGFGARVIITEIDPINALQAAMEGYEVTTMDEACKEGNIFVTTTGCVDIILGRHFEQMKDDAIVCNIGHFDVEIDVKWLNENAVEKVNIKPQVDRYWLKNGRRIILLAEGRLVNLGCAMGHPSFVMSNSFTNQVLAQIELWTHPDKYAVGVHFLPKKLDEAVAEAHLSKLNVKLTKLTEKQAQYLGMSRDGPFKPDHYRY

[10] = test system: Japanese encephalitis virus; test: Antiviral activity against Japanese […] encephalitis virus infected in African green monkey Vero 76 cells; format: functional, organism-based
[11] = Selectivity index, ratio of CC50 for African green monkey Vero cells to EC50 for Pichinde virus; format: toxicity; settings: read-out: Ratio CC50/EC50
[12] = Selectivity index, ratio of CC50 for African green monkey Vero E6 cells to EC50 for Ebolavirus subtype Zaire; format: toxicity, Vero C1008; settings: read-out: Ratio CC50/EC50
Ebolavirus [13] = test: Antiviral activity against Ebolavirus subtype Zaire infected in African green monkey Vero E6 cells; format: functional, Ebola virus - Zaire (1995); settings: Orthoebolavirus, Vero C1008
[14] = Cytotoxicity against African green monkey Vero E6 cells assessed as reduction in cell viability; format: cell-based; settings: chlorocebus sabaeus, Vero E6 cells (Vero C1008)

Nc1cccc2c1ncn2[C@@H]1C(F)=C(CO)[C@@H](O)[C@H]1O
Activity (Tacaribe virus): inactive | Activity (West Nile virus): inactive | Activity (Hepatitis B virus): inactive | selectivity ratio [1]: > 320 | EC50 (Measles morbillivirus): < 0.36 µM | Activity (Poliovirus 1): inactive | CC50 [2]: 125 to 360 µM | Activity (Human adenovirus 5): inactive | Activity (Norovirus): inactive | selectivity ratio [3]: > 347 | Activity (Yellow fever virus): inactive | CC50 [4]: 115 µM | EC50 (Ebolavirus [5]): < 0.36 µM | EC50 (Influenza A virus): 20.2 µM | CC50 [6]: 133 µM | selectivity ratio [7]: 6.6 | Activity (Punta Toro virus): inactive | Activity [8]: inactive | Activity (Usutu virus): inactive | Activity (dengue virus type 2): inactive | Activity (Chikungunya virus): inactive | Activity (Human betaherpesvirus 5): inactive | EC50 (Pichinde virus): 57.6 µM | Activity (Rift Valley fever virus): inactive | IC50 [9]: 0.00869 µM | Activity [10]: inactive | selectivity ratio [11]: > 6.3

Nc1ccnc2c1ncn2[C@@H]1C=C(CO)[C@@H](O)[C@H]1O
selectivity ratio [12]: 15 | EC50 (Ebolavirus [13]): 4 µM | CC50 [14]: 60 µM

Nc1cccc2c1ncn2[C@@H]1C=C(CO)[C@@H](O)[C@H]1O
selectivity ratio [12]: > 850 | EC50 (Ebolavirus [13]): 2 µM | CC50 [14]: > 1700 µM
